The term MIC denotes the lowest concentration that inhibits growth of the organism.

In brackets after ≈: the same amount, converted by molar mass.

Consider five compounds from article PMC11726445 (RSC Advances, 2025).

Common to all, as to format: cell-based
In test [1] the test system is Klebsiella pneumonia. Kind of test: Bacterial lipid peroxidation. As to conditions: treated at the MIC level.
Test [2] deals with Staphylococcus aureus. Kind of test: Biofilm inhibition, crystal violet method.
In test [3] the test system is Salmonella typhimurium. Kind of test: Bacterial lipid peroxidation. The conditions noted are these: treated at the MIC level.
Test [4] relates to Staphylococcus aureus. Nature of the test: MIC, broth microdilution.
The test system of test [5] is Bacillus subtilis. Kind of test: MIC, broth microdilution.
Another test has as its system Candida albicans. Nature of the test: MIC, broth microdilution.
Test [6] deals with Klebsiella pneumonia. Kind of test: MIC, broth microdilution. The conditions noted are these: Klebsiella pneumoniae. Background: Broth dilution looks for growth in wells or tubes with falling amounts of substance.
For test [7], the system named is Pseudomonas aeruginosa. Nature of the test: Biofilm inhibition, crystal violet method.
The subject of test [8] is Pseudomonas aeruginosa. Nature of the test: Bacterial lipid peroxidation. As to conditions: treated at the MIC level.
For test [9], the system named is Salmonella typhimurium. Kind of test: Biofilm inhibition, crystal violet method.
For test [10], the system named is Pseudomonas aeruginosa. Kind of test: MIC, broth microdilution.
Test [11] concerns Bacillus subtilis. Nature of the test: Biofilm inhibition, crystal violet method.
In test [12] the test system is Bacillus subtilis. Nature of the test: Bacterial lipid peroxidation. As to conditions: treated at the MIC level.
Test [13] relates to Klebsiella pneumonia. Kind of test: Biofilm inhibition, crystal violet method.
Test [14] deals with Staphylococcus aureus. Kind of test: Bacterial lipid peroxidation. As to conditions: treated at the MIC level.

Consider `CCCS(=O)(=O)Oc1ccc(C=NNC(=O)CSc2nc3c(C)cccc3c(=O)n2-c2ccccc2)cc1OC` [5f, 2-Methoxy-4-((2-(2-((8-methyl-4-oxo-3-phenyl-3,4-dihydroquinazolin-2-yl)thio)-acetyl)hydrazono)methyl)phenyl propane-1-sulfonate], for which the Lipid peroxidation efficiency is given as 230.4 ± 2.12% with Klebsiella pneumonia [1]; 273.1 ± 4.33% in the test with Salmonella typhimurium [3]; 140.4 ± 5.02% in the test with Pseudomonas aeruginosa [8]; 212.5 ± 5.52% in the test with Bacillus subtilis [12]; 151.2 ± 1.92% in the test with Staphylococcus aureus [14]. Besides, the Biofilm inhibition in the test with Staphylococcus aureus [2] is 45.1 ± 1.62%; in the test with Pseudomonas aeruginosa [7], 34.8 ± 4.07%; with Salmonella typhimurium [9] it was 37.4 ± 1.82%; in the test on Bacillus subtilis [11], 56.4 ± 3.12%; with Klebsiella pneumonia [13] it was 59.6 ± 2.22%. The minimum inhibitory concentration (MIC) is 50 ± 0.88 µg/mL (≈ 86.1 µM) against Staphylococcus aureus [4]; 23 ± 2.21 µg/mL (≈ 39.6 µM) in the test on Bacillus subtilis [5]; 48 ± 4.18 µg/mL (≈ 82.7 µM) against Candida albicans; 22 ± 4.72 µg/mL (≈ 37.9 µM) against Klebsiella pneumonia [6]; 45 ± 6.11 µg/mL (≈ 77.5 µM) against Pseudomonas aeruginosa [10].
As to `COc1ccc(C=NNC(=O)CSc2nc3c(C)cccc3c(=O)n2-c2ccccc2)cc1OS(C)(=O)=O` [5g, 2-Methoxy-5-((2-(2-((8-methyl-4-oxo-3-phenyl-3,4-dihydroquinazolin-2-yl)thio)-acetyl)hydrazono)methyl)phenyl methanesulfonate], the Lipid peroxidation efficiency in the test with Klebsiella pneumonia [1] stood at 285.2 ± 1.44%; in the test with Salmonella typhimurium [3], 210.4 ± 4.66%; in the test on Pseudomonas aeruginosa [8], 175.2 ± 3.29%; in the test on Bacillus subtilis [12], 219.7 ± 2.71%; with Staphylococcus aureus [14], 118.4 ± 2.26%. For the same compound, the Biofilm inhibition is reported as 34.7 ± 4.02% in the test on Staphylococcus aureus [2]; 20.1 ± 2.32% in the test on Pseudomonas aeruginosa [7]; 33.9 ± 2.94% in the test with Salmonella typhimurium [9]; 45.1 ± 2.72% in the test with Bacillus subtilis [11]; 32.8 ± 1.92% in the test on Klebsiella pneumonia [13]. In addition, the “Efficacy (MIC) relative to Sulfadiazine” value with Staphylococcus aureus [4] was found to be 2 fold. Moreover, the MIC was 11.3 ± 2.38 µg/mL against Staphylococcus aureus [4]; 48 ± 2.25 µg/mL with Bacillus subtilis [5]; 9 ± 3.17 µg/mL in the test with Candida albicans; 99 ± 5.02 µg/mL in the test with Klebsiella pneumonia [6]; 96 ± 4.83 µg/mL against Pseudomonas aeruginosa [10].
Take `CCS(=O)(=O)Oc1ccc(C=NNC(=O)CSc2nc3ccc(Cl)cc3c(=O)n2-c2ccccc2)cc1` [5k, 4-((2-(2-((6-Chloro-4-oxo-3-phenyl-3,4-dihydroquinazolin-2-yl)thio)acetyl)-hydrazono)methyl)phenyl ethanesulfonate]: the Lipid peroxidation efficiency in the test with Klebsiella pneumonia [1] was found to be 295.2 ± 1.89%; in the test on Salmonella typhimurium [3] it was 278.3 ± 5.07%; with Pseudomonas aeruginosa [8] it was 181.3 ± 6.06%; in the test on Bacillus subtilis [12], 377.6 ± 3.44%; in the test on Staphylococcus aureus [14], 202.2 ± 2.17%. Besides, the Biofilm inhibition in the test on Staphylococcus aureus [2] is on record as 42.9 ± 2.62%; with Pseudomonas aeruginosa [7], 38.7 ± 3.66%; with Salmonella typhimurium [9] it was 61.9 ± 1.72%; in the test on Bacillus subtilis [11], 63.7 ± 0.92%; in the test on Klebsiella pneumonia [13] it was 53.1 ± 2.12%. Moreover, the MIC was 52 ± 0.28 µg/mL against Staphylococcus aureus [4]; 49 ± 2.77 µg/mL in the test with Bacillus subtilis [5]; 10 ± 2.55 µg/mL in the test with Candida albicans; 44 ± 1.88 µg/mL against Klebsiella pneumonia [6]; 97 ± 3.88 µg/mL with Pseudomonas aeruginosa [10].
On to `O=C(O)c1cn(C2CC2)c2cc(N3CCNCC3)c(F)cc2c1=O` [Ciprofloxacin, reference compound], for which the Lipid peroxidation efficiency was found to be 327.4 ± 4.42% in the test on Klebsiella pneumonia [1]; 294.8 ± 1.99% in the test on Salmonella typhimurium [3]; 346.3 ± 2.62% with Pseudomonas aeruginosa [8]; 417.7 ± 2.83% in the test with Bacillus subtilis [12]; 319.8 ± 3.26% in the test with Staphylococcus aureus [14]. In addition, the Biofilm inhibition stood at 30.9 ± 4.52% in the test on Staphylococcus aureus [2]; 45.2 ± 1.18% in the test on Pseudomonas aeruginosa [7]; 58.3 ± 4.02% in the test with Salmonella typhimurium [9]; 49.2 ± 1.16% with Bacillus subtilis [11]; 40.8 ± 3.88% in the test on Klebsiella pneumonia [13].
For `Nc1ccc(S(=O)(=O)Nc2ncccn2)cc1` [Sulfadiazine, reference compound], the MIC in the test with Staphylococcus aureus [4] was 24 ± 3.92 µg/mL (≈ 95.9 µM); in the test on Bacillus subtilis [5], 46 ± 4.18 µg/mL (≈ 184 µM); with Candida albicans it was 72 ± 3.44 µg/mL (≈ 288 µM); in the test on Klebsiella pneumonia [6] it was 47 ± 3.18 µg/mL (≈ 188 µM); against Pseudomonas aeruginosa [10], 70 ± 4.99 µg/mL (≈ 280 µM).
